{
  "source": "paper PMC4848090",
  "about": "“Mechanistic insight into a peptide hormone signaling complex mediating floral organ abscission” (eLife, 2016)",
  "molecules": {"B1": {"name": "SERK1: LRR ectodomain of Arabidopsis SERK1 co-receptor (residues 24–213, Asn115→Asp, Asn163→Gln), expressed in insect cells (protein)", "chain": "ASANLEGDALHTLRVTLVDPNNVLQSWDPTLVNPCTWFHVTCNNENSVIRVDLGNAELSGHLVPELGVLKNLQYLELYSNNITGPIPSNLGDLTNLVSLDLYLNSFSGPIPESLGKLSKLRFLRLNNNSLTGSIPMSLTQITTLQVLDLSNNRLSGSVPDNGSFSLFTPISFANNLDLCGPVTSHPCPGS", "modifications": "left off: Strep, C-terminal, cleaved | 9xHis, C-terminal, cleaved", "notes": "LRR ectodomain of Arabidopsis SERK1 co-receptor (residues 24–213, Asn115→Asp, Asn163→Gln), expressed in insect cells"}, "B2": {"name": "synthetic IDA peptide PIPPSA-Hyp-SKRHN (crystal soak) (peptide)", "peptide": "PIPPSA[Hyp]SKRHN", "notes": "INFLORESCENCE DEFICIENT IN ABSCISSION (IDA), Arabidopsis thaliana, residues 58-69; Hyp written as P; also called dodecamer peptide; source: synthetic peptide"}},
  "key": {"[1]": {"molecular_target": "T1, HAESA ectodomain (residues 20–620) (Arabidopsis thaliana, UniProt P47735)", "T1 construct": "We purified the HAESA ectodomain (residues 20–620) from baculovirus-infected insect cells; azurocidin signal peptide (N); made in house; host or cells: Trichoplusia ni Tnao38 insect cells (baculovirus, secreted)", "experiment": "Isothermal titration calorimetry of synthetic IDA-family peptides vs. the isolated HAESA ectodomain", "assay_type": "binding", "source_text": "(§1) Synthetic genes coding for the Arabidopsis thaliana HAESA (residues 20–620) and SERK1 ectodomains (residues 24–213, carrying Asn115→Asp and Asn163→Gln mutations), codon optimized for expression in Trichoplusia ni (Geneart, Germany), were cloned into a modified pBAC-6 transfer vector (Novagen, Billerica, MA), providing an azurocidin signal peptide and a C-terminal TEV (tobacco etch virus protease) cleavable Strep-9xHis tandem affinity tag. Recombinant baculoviruses were generated by co-transfecting transfer vectors with linearised baculovirus DNA (ProFold-ER1, AB vector, San Diego, CA) followed by viral amplification in Spodoptera frugiperda Sf9 cells. […] The purified HAESA ectodomain was incubated with a synthetic IDA peptide (YVPIPPSA-Hyp-SKRHN, the N-terminal Tyr residue was added to allow for peptide quantification by UV absorbance) and the SERK1 ectodomain in 1:1:1.5 molar ratio. […]\n(§2) ITC experiments were performed using a Nano ITC (TA Instruments, New Castle, DE) with a 1.0 mL standard cell and a 250 μL titration syringe. […] Molar protein concentrations for SERK1 and HAESA were calculated using their molar extinction coefficient and a molecular weight of 27,551 and 74,896 Da, respectively (determined by MALDI-TOF mass spectrometry). […] Data were analyzed using the NanoAnalyze program (version 2.3.6) as provided by the manufacturer."}, "[2]": {"tested_on": "HAESA and SERK1 ectodomains", "experiment": "Analytical size-exclusion chromatography of HAESA – SERK1 ectodomain complex formation with peptide", "assay_type": "binding, Arabidopsis thaliana", "conditions": "Superdex 200 HR 10/30, 20 mM citric acid pH 5, 100 mM NaCl; peptide 25 μM; HAESA and SERK1 1:1 molar ratio; UV 280 nm", "method": "Gel filtration experiments were performed using a Superdex 200 HR 10/30 column (GE Healthcare) pre-equilibrated in 20 mM citric acid (pH 5) and 100 mM NaCl. 100 μL of the isolated HAESA ectodomain (5.5 mg/mL), of the purified SERK1 LRR domain (3 mg/mL) or of mixtures of HAESA and SERK1 (either in the presence or absence of synthetic wild-type IDA, wild-type IDL1 or mutant IDA peptides at a concentration of 25 μM; 10 mg/mL; samples contained HAESA and SERK1 in 1:1 molar ratio) were loaded sequentially onto the column and elution at 0.5 mL/min was monitored by ultraviolet absorbance at 280 nm."}, "HAESA - IDA": {"tested_on": "HAESA - IDA", "experiment": "Isothermal titration calorimetry of SERK1 titrated into HAESA in the presence of IDA", "assay_type": "binding, Arabidopsis thaliana", "conditions": "ITC, 25°C, pH 5.0; SERK1 (100 μM) titrated into HAESA (10 μM) in the presence of 150 μM wild-type IDA peptide", "source_text": "as §1, §2"}, "HAESA ectodomain": {"tested_on": "HAESA ectodomain", "experiment": "Isothermal titration calorimetry of SERK1 titrated into HAESA ectodomain only", "parameters": "species or system Arabidopsis thaliana", "conditions": "ITC, 25°C, pH 5.0; SERK1 (100 μM) titrated into HAESA (10 μM) in the absence of IDA; n.d. no detectable binding", "source_text": "as §1, §2"}, "[3]": {"molecular_target": "T2, Arabidopsis thaliana HAESA ectodomain (residues 20–620) (Arabidopsis thaliana, UniProt P47735 20-620, N-glycans (glycoprotein of ~75 kDa))", "T2 construct": "HAESA, leucine-rich repeat receptor kinase, Arabidopsis thaliana, ectodomain residues 20–620; Synthetic gene, codon optimized; the vector provides an azurocidin signal peptide for secretion; also called HAESA LRR domain; HAESA LRR ectodomain; not shown: Strep, C-terminal, cleaved; 9xHis, C-terminal, cleaved", "T2 sequence (looked up)": "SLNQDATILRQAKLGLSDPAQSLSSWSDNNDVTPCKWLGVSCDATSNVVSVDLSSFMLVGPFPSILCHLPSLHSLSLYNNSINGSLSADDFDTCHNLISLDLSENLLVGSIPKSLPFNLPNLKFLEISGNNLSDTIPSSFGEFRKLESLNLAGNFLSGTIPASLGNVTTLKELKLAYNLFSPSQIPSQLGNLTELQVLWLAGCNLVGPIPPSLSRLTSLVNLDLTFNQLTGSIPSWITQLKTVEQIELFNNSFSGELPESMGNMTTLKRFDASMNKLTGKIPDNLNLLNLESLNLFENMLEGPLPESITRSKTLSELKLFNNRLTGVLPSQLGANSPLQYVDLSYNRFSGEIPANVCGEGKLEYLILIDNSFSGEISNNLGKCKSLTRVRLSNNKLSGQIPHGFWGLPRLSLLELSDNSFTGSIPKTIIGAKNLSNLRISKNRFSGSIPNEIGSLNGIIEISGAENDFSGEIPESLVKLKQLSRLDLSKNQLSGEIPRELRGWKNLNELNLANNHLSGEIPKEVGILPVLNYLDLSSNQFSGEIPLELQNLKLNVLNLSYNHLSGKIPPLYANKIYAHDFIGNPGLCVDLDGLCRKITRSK", "experiment": "crystal structure; apo HAESA ectodomain crystals soaked in crystallization buffer with 15 mM synthetic peptide", "conditions": "both partners purified"}},
  "note": "Non-standard residues stand in square brackets, D forms with d. No end group written: not given here. Hyp = O=C(O)[C@@H]1C[C@@H](O)CN1",
  "data": [
    {"molecule": "CC[C@H](C)[C@H](NC(=O)[C@@H]1CCCN1C(=O)[C@@H](NC(=O)[C@@H](N)Cc1ccc(O)cc1)C(C)C)C(=O)N1CCC[C@H]1C(=O)N1CCC[C@H]1C(=O)N[C@@H](CO)C(=O)N[C@@H](C)C(=O)N1C[C@H](O)C[C@H]1C(=O)N[C@@H](CO)C(=O)N[C@@H](CCCCN)C(=O)N[C@@H](CCCNC(=N)N)C(=O)N[C@@H](Cc1c[nH]cn1)C(=O)N[C@@H](CC(N)=O)C(=O)O", "note": "[IDA]", "values": [
      {"measurement": "Kd", "setting": "[1]", "value": "20 ± 0.9", "unit": "µM"}
    ]},
    {"molecule": "IDA Hyp64P: IDA mutant peptide with Hyp64 replaced with proline (YVPIPPSAPSKRHN)", "values": [
      {"measurement": "HAESA – SERK1 complex formation in size exclusion chromatography", "setting": "[2]", "value": "no complex formation"}
    ]},
    {"molecule": "YPIPPSA[Hyp]SKRHNSFVN [IDA-SFVN, C-terminally extended IDA peptide]", "values": [
      {"measurement": "binding to the HAESA ectodomain, in words", "setting": "[1]; ITC", "value": "cannot bind"}
    ]},
    {"molecule": "B1", "values": [
      {"measurement": "Kd of SERK1, protein in cell: HAESA - IDA", "setting": "HAESA - IDA", "value": "mid-nanomolar range"},
      {"measurement": "Kd of SERK1, protein in cell: HAESA", "setting": "HAESA ectodomain", "value": "no detectable interaction"}
    ]},
    {"molecule": "B2", "values": [
      {"measurement": "binding result", "setting": "[3]", "value": "binds"}
    ]}
  ]
}
